Source: ChEMBL document CHEMBL2074132, “Functional characterization of the hepatic sodium-dependent taurocholate transporter stably transfected into an immortalized liver-derived cell line and V79 fibroblasts” (Eur J Cell Biol, 1996)

Tests used:
Assay type in all cases: functional, cell-based
[1] = molecular target: T1, Hepatic sodium/bile acid cotransporter (Rattus norvegicus, UniProt P26435); test: TP_TRANSPORTER: uptake in Ntcp-expressing HPCT-1E3 cells
T1 sequence (P26435 whole entry): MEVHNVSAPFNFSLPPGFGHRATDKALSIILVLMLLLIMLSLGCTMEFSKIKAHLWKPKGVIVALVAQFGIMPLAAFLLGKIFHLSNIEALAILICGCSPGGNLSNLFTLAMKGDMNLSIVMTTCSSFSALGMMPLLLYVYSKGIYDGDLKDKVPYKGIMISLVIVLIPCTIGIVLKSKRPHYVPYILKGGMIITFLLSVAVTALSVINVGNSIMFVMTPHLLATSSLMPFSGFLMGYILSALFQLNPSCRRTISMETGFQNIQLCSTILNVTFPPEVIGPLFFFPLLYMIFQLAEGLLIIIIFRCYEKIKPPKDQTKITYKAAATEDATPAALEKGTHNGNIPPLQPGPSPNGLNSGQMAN

[2] = molecular target: T1, Hepatic sodium/bile acid cotransporter; test: TP_TRANSPORTER: inhibition of Taurocholate uptake (Taurocholate: 10 uM, GC: 100 uM) in Ntcp-expressing HPCT-1E3 cells; details: hpct-1e3, 100 µM
[3] = molecular target: T1, Hepatic sodium/bile acid cotransporter; test: TP_TRANSPORTER: inhibition of Taurocholate uptake (Taurocholate: 10 uM, Oligomycin: 0.01mg/mL) in Ntcp-expressing HPCT-1E3 cells

Activity [1] | SMILES | Activity [2] | Activity [3]
is not a substrate [-] | CCCCNc1cc(C(=O)O)cc(S(N)(=O)=O)c1Oc1ccccc1 [BUMETANIDE] | – | –
is not a substrate [-] | C[C@H](CCC(=O)NCC(=O)O)[C@H]1CC[C@H]2[C@@H]3[C@H](O)C[C@@H]4C[C@H](O)CC[C@]4(C)[C@H]3C[C@H](O)[C@]12C [GLYCOCHOLIC ACID] | inhibitor [(at a rough estimate) 60 % of control] | –
– | CC[C@H]1/C=C/C=C/C[C@@H](C)[C@H](O)[C@@](C)(O)C(=O)[C@@H](C)[C@H](O)[C@@H](C)C(=O)[C@@H](C)[C@H](O)[C@@H](C)/C=C/C(=O)O[C@@H]2[C@H](C)[C@H](CC1)O[C@]1(CC[C@H](C)[C@H](C[C@@H](C)O)O1)[C@H]2C [OLIGOMYCIN] | – | inhibitor [(at a rough estimate) 10 % of control]
